Test results reported in US7135305B2, “Methods for controlling the lysis of coagulated blood with apolipoprotein e4 phenotype” (priority 2000, dated 2006).

Key:
[1] = system: t-PA stimulated clot lysis in fresh human blood; test: in vitro clot lysis measured by the amount of liquid liberated from the blood sample (Example 1); settings: FIG. 2; individual B's blood; t-PA alone 0.5 mg/l blood; N=3
From the text: There are various methods for determining the function, action and or kinetics of t-PA. These include but are not limited to: measuring fibrin degradation fragments, clot lysis, clot weight, fluid evolution weight, clot times and others. Those experienced in the art will be familiar with these and other methods for assaying t-PA activity or clot degradation/formation etc. The data from this study consists of a measurement of clot dissolution or lysis by measuring the amount of liquid liberated from the blood sample. This is an index of clot lysis and the clot lysis is stimulated by t-PA.
Typically, two mls of fresh human blood are drawn and added to pre-weighed vials containing known amounts of t-PA with or without Apo E4. The blood is mixed and allowed to equilibrate for 40 minutes. The vials are centrifuged at 1 g for 15 minutes and the supernatant decanted. Clot weight and solution weight is determined and used to measure clot degradation or dissolution. Increasing supernatant volumes indicate increased clot degradation or increasing clot dissolution.

[2] = system: t-PA induced clot lysis; test: in vitro clot assay system, t-PA induced clot lysis with supplemental Apo E isoproteins (Example 3); parameters: species or system human; settings: FIG. 4; t-PA 0 to 4 μg/ml, alone or with supplemental Apo E 9.8 μg/ml; blood of 18 volunteers
Protocol: The ability of Apo E isoproteins to modulate t-PA induced clot lysis is assessed using an in vitro clot assay system. This system uses the decrease in clot formation in the presence of t-PA to approximate the amount of clot lysis. Blood samples are obtained from 18 volunteers and divided into three Apo E genotypes (6 patients in each group): E2 (E2/E2, E2/E3, E2/E4), E3 (E3/E3) and E4 (E3/E4, E4/E4). Clot lysis in the presence of varying concentrations of t-PA (0 to 4 μg/ml), is assessed in the presence or absence of supplemental Apo E2, E3 or E4 (9.8 μg/ml) for each patient genotype. The results are expressed as EC50s, which are the effective concentrations of t-PA required to achieve 50% lysis of the clot.

“t-PA: tissue plasminogen activator, clot lysis agent” was tested, and the “level of clot lysis” value [1] was 2.5 g and the “EC50, effective concentration of t-PA required to achieve 50% lysis of the clot” value [2] was 0.72 ± 0.19 mg/L.
